Earlier results as cited in patent publication US6562757B1, “Plant-protection treatment of plants and compositions which can be used for this purpose” (Cerexagri S.A., priority 1999, dated 2003).

Conditions: pH 7

Structure (SMILES)	amount of soluble aqueous copper (Cu2+(aq)) released [mg/L]
[Cu+2].[OH-].[OH-] [copper hydroxide]	1 to 10
[Cl-].[Cu+2].[Cu+2].[OH-].[OH-].[OH-] [copper oxychloride]	1 to 10
